Measurements from patent US8318781B2, “G-protein-conjugated receptor agonist” (Japan Science and Technology Agency, priority 2007, dated 2012).
“Also recorded” adds a separate entry of the source. Read-outs that look alike come from different tables or passages of the source.

Tests used:
Type in all cases: cell-based
human GPR40 (hGPR40) [1] = biological target: T1, human GPR40 (hGPR40) (Homo sapiens, UniProt O14842); test: ERK assay, screening for GPR40 ligands in cell line TXGPR40; conditions: TXGPR40 cells; for ERK/GPR40 10 μM: ligand 10 μM; for ERK/GPR40 10 μM / ERK/GPR40 100 μM: class relative to LA; for ERK/GPR40 100 μM: ligand 100 μM; for ERK activation for GPR40 (in words): FIGS. 1-4
T1 construct: expressed in transfected cells; doxycycline-inducible expression vector
Description: (§1) This Test 1 was carried out by using the following materials and methods.
(§2) (1) In this test, the cell lines TXGPR40 and TXGPR120 were plated in 35-mm dishes in 5×10^5 cells/per dish.
(§3) Each ligand was dissolved in DMSO, diluted tenfold with the medium to make the total amount of 100 μl. DMSO was used as the negative control, and PMA (phorbol-12-myristate-13-acetate) was used as the positive control.
(§4) (3) The medium was removed from the dish of the cell to reduce the total amount of liquid to 0.9 ml.
(§5) (4) The ligand solution was added dropwise to the cell solution, and dispersed by gently shaking the dish, and allowed to react at room temperature.
(§6) (5) After 5 minutes of reaction, the medium was discarded, and the remaining medium on the dish was removed on ice using an aspirator.
(§7) (6) 150 μl of Lysis buffer (50 mM HEPES (pH 7.0), 150 mM NaCl, 10% glycerol, 1% NonidetP-40, 2 mM MgCl2, 1 mM EDTA, 100 mM NaF, 10 mM sodium phosphate, 1 mM Na3VO4, 20 mM β-glycerophosphate, and Proteinase inhibitor) were added, then the cells were collected using a cell scraper.
(§8) (1) The crude enzyme solution mixed with SDS Sample Buffer was subjected to ultrasonication with a sonifier, then incubated at 90° C. for five minutes.
(§9) (2) The mixture was vortexed and centrifuged at 15,000 rpm for five minutes at 4° C.
(§10) (3) The supernatant of the centrifuged sample was applied to two 7.5% acrylamide gel slabs placed in an electrophoresis tank filled with 1×SDS-PAGE Running Buffer (25 mM Tris, 0.2 M Glycin, and 1% SDS). Electrophoresis was carried out under a constant current of 40 mA for about 80 to 90 minutes.
(§11) (1) A PVDF membrane cut in the same size as the gel slab was immersed in methanol for about 15 seconds and then shaken in Transfer Buffer C solution (25 mM Tris, 0.02% SDS, 2% methanol and 40 mM 6-aminohexanoic acid) at room temperature to swell for 15 minutes. Filter paper for blotting was cut into a 10-cm square.
(§12) (2) On the blotting apparatus were placed sequentially two pieces of filter paper immersed in A solution (0.3 M Tris, 0.02% SDS and 2% methanol), two pieces of filter paper immersed in B solution (25 mM Tris, 0.02% SDS and 2% methanol), and the membrane thereon. The gel slab after electrophoresis, and finally two pieces of filter paper immersed in C solution was placed thereon, and the apparatus was closed.
(§13) (3) The protein was transferred to the membrane at 15 V for 30 minutes.
(§14) (1) The following procedure was all carried out at room temperature. After the protein transfer, the membrane was placed into a vial containing 1×TTBS (0.2 M Tris, 1.5 M NaCl, 0.2% Tween 20) and washed for 15 minutes.
(§15) (2) TTBS was discarded, and about 10 ml of Block Ace was added and blocked on a shaker for one hour.
(§16) (1) The primary antibodies (p44/42 MAP Kinase Antibody and Phospho-p44/42 MAP Kinase Antibody) were each diluted 1000-fold with TTBS.
(§17) (2) After blocking, the Block Ace solution was removed, the solution of the primary antibody was added and allowed to react on the shaker for two hours.
(§18) (1) The secondary antibody (Anti-rabbit Ig, Horseradish Peroxidase linked F(ab′)2 fragments) was diluted 5000-fold with TTBS.
(§19) (2) The primary antibody solution was removed and the membrane was washed three times on the shaker in TTBS for five to ten minutes each.
(§20) (3) TTBS was removed and the solution of secondary antibody was added and left for 1 hour on the shaker.
(§21) (1) 2 ml each of Detection Reagent 1 and Detection Reagent 2 from ECL kit were mixed together on ice.
(§22) (2) The solution of secondary antibody was removed from the membrane reacted with the secondary antibody and then washed three times on the shaker in TTBS for five minutes each.
(§23) (3) The liquid was thoroughly removed from the membrane, which was then placed in a plastic bag, and 2 ml of the Detection Reagent mixture was added per each membrane.
(§24) (4) The membrane was kept in contact with a film in the cassette for one to five minutes, and the film was developed using an automatic developing machine.

human GPR120 (hGPR120) [2] = biological target: T2, human GPR120 (hGPR120) (Homo sapiens, UniProt Q5NUL3); test: ERK assay, screening for GPR120 ligands in cell line TXGPR120;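 on ERK/GPR120 10 μM: signals normalized between DMSO and PMA controls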; conditions: TXGPR120 cells; for ERK/GPR120 10 μM: ligand 10 μM; for ERK/GPR120 10 μM / ERK/GPR120 100 μM: class relative to LA; for ERK/GPR120 100 μM: ligand 100 μM; for ERK activation for GPR120 (in words): FIGS. 5-8
T2 construct: expressed in transfected cells; doxycycline-inducible expression vector
T2 sequence (Q5NUL3 1-361): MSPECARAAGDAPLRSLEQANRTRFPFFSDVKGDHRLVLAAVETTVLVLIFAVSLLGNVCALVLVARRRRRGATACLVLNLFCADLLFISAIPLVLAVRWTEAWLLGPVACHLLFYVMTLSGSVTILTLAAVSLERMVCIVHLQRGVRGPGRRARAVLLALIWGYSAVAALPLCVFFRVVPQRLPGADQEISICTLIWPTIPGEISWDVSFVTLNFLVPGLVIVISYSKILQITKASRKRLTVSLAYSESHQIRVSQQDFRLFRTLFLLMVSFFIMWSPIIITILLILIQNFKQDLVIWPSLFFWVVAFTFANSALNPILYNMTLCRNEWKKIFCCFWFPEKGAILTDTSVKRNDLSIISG
Description: as §1, §2, §3, §4, §5, §6, §7, §8, §9, §10, §11, §12, §13, §14, §15, §16, §17, §18, §19, §20, §21, §22, §23, §24

human GPR40 (hGPR40) [3] = biological target: T1, human GPR40 (hGPR40); test: Determination of intracellular Ca2+ concentration (FLIPR), cell line TXGPR40; conditions: for agonistic activity for GPR40 (in words): cells in which GPR40 has been transgenically expressed; for [Ca^2+]/GPR40 10 μM (ratio vs. LA): relative fluorescence intensity vs LA at 10 μM
Description: (§25) (1) In this test, The cell lines TXGPR40, TXGPR120 and GPR120/Flp-in were plated onto a collagen-coated black 96-well plate in 2×10^5 cells/well. The 96-well plates containing the cells were centrifuged and treated with Doxycycline (final concentration 10 μg/mL), incubated in a CO2 incubator for 21 hours, then used for assay.
(§26) (2) The ligand used in this test includes NCP04, NCP14, NCG20, NCG21, NCG22, NCG23, NCP02, NCP03, NCP05, NCP06, NCG14, NCG17, NCG19, NCG28, NCG29, NCG30, NCG31, NCG34, NCG35, NCG37, NCG38, NCG44, NCG45, NCG46, and NCG54. Each ligand was dissolved in DMSO and adjusted to the concentration of 10 mM, then diluted with Hanks' Balanced Salt Solution (pH 7.4) containing 20 mM HEPES (referred to as FLIPR buffer hereinafter) to the final concentration of 1 to 100 μM. 1% DMSO was used as the negative control, and LA was used as the positive control.
(§27) The ligands and controls were placed in different 96-well plates from the plates for the cells.
(§28) (3) The 96-well plate containing the cells was removed from the CO2 incubator. A fluorescent dye prepared in a twofold higher concentration (Ca Assay Kit Component A diluted with FLIPR Buffer) was added in 50 μL/well, then allowed to stand in the dark at room temperature for one hour.
(§29) (4) After one hour, the 96-well plate containing the cells and the 96-well plate in which ligands and controls were prepared were set on FLIPR (Fluorometric Imaging Plate Reader) for determination.
(§30) (5) Fluorometry using FLIPR was carried out at a laser output of 1.0 W for five minutes. […] after the start of the determination, the ligand (25 μL) was added dropwise to the cell plate at a rate of 50 μL/sec. The intensity of fluorescence was automatically digitized by the application program installed in the FLIPR from the image taken by the CCD camera (with exposure time of 0.40 sec). The interval of data sampling was one second for the initial one minute after the start of operation, and six seconds for the subsequent four minutes.
(§31) (6) The maximum fluorescence intensity was obtained from the data showing the change in the fluorescence intensity over time observed in each well. The maximum fluorescence intensity was plotted against ligand concentration, and pEC50 was calculated. The ratio of the fluorescence intensity for each ligand to LA at 10 μM was calculated as the relative intensity of each ligand.

human GPR120 (hGPR120) [4] = biological target: T2, human GPR120 (hGPR120); test: Determination of intracellular Ca2+ concentration (FLIPR), cell line GPR120/Flp-in; conditions: for [Ca^2+]/GPR120/Flp-In 10 μM (ratio vs. LA): relative fluorescence intensity vs LA at 10 μM
Description: as §25, §26, §27, §28, §29, §30, §31

human GPR120 (hGPR120) [5] = biological target: T2, human GPR120 (hGPR120); test: Determination of intracellular Ca2+ concentration (FLIPR), cell line TXGPR120; conditions: for agonistic activity for hGPR120 (in words): cells in which GPR120 has been transgenically expressed; for [Ca^2+]/GPR120 10 μM (ratio vs. LA): relative fluorescence intensity vs LA at 10 μM, TXGPR120 cells
Description: as §25, §26, §27, §28, §29, §30, §31

[6] = TXGPR40 cells, maximum fluorescence intensity vs ligand concentration, read-out: [Ca^2+]/GPR40 pEC50 (converted)
[7] = GPR120/Flp-in cells, maximum fluorescence intensity vs ligand concentration, read-out: [Ca^2+]/GPR120/Flp-In pEC50 (converted)

T1 sequence (O14842 whole entry): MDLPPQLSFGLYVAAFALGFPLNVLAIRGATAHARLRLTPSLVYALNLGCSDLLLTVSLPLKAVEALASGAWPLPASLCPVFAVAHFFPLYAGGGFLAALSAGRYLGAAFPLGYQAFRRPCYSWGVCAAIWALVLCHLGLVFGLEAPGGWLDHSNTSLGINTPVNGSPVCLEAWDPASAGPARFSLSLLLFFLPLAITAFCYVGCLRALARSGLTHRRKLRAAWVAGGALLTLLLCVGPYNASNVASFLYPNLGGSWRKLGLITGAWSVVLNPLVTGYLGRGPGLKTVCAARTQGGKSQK

| Structure (SMILES) | ERK/GPR40 10 μM (human GPR40 (hGPR40) [1]) | ERK/GPR40 100 μM (human GPR40 (hGPR40) [1]) | ERK/GPR120 10 μM (human GPR120 (hGPR120) [2]) | ERK/GPR120 100 μM (human GPR120 (hGPR120) [2]) | EC50 (human GPR40 (hGPR40) [3]; [6]) [µM] | agonistic activity for GPR40 (in words) (human GPR40 (hGPR40) [3]) | [Ca^2+]/GPR40 10 μM (ratio vs. LA) (human GPR40 (hGPR40) [3]; TXGPR40 cells) | EC50 (human GPR120 (hGPR120) [4]; [7]) [µM] | [Ca^2+]/GPR120/Flp-In 10 μM (ratio vs. LA) (human GPR120 (hGPR120) [4]; GPR120/Flp-in cells) | agonistic activity for hGPR120 (in words) (human GPR120 (hGPR120) [5]) | [Ca^2+]/GPR120 10 μM (ratio vs. LA) (human GPR120 (hGPR120) [5]) | ERK activation for GPR40 (in words) (human GPR40 (hGPR40) [1]) | ERK activation for GPR120 (in words) (human GPR120 (hGPR120) [2]) | EC50 (human GPR40 (hGPR40) [3]) [µM] | EC50 (human GPR120 (hGPR120) [4]) [µM] | EC50 (human GPR120 (hGPR120) [5]) [µM] |
| --- | --- | --- | --- | --- | --- | --- | --- | --- | --- | --- | --- | --- | --- | --- | --- | --- |
| CCN(CCOc1ccc(CCC(=O)O)cc1)c1ccccn1 [NCP02] | + (+ denotes 0 to 100% of LA) | +++ (+++ denotes a higher value than LA) | + (+ denotes 0 to 100% of LA) | + (+ denotes 0 to 100% of LA) | 3.39 | showed a specific reactivity | 1.47 | 15.5 | 0.45 | exhibit a similar effect | 0.00 | – | – | – | – | – |
| O=C(O)CCc1ccc(OCCCN(c2ccccc2)c2ccccn2)cc1 [NCG28] | +++ (+++ denotes a higher value than LA) | +++ (+++ denotes a higher value than LA) | ++ (++ denotes 50 to 100% of LA) | +++ (+++ denotes a higher value than LA) | 1.12 | showed a specific reactivity | 1.37 | 6.76 | 0.54 | exhibit a similar effect | 0.02 | activates ERK at lower concentrations; also recorded: strongly activated ERK | activates ERK | – | – | – |
| Cc1cccc(N(CCOc2ccc(CCCC(=O)O)cc2)c2ccccc2)n1 [NCG38] | ++ (++ denotes 50 to 100% of LA) | +++ (+++ denotes a higher value than LA) | +++ (+++ denotes a higher value than LA) | +++ (+++ denotes a higher value than LA) | – | showed a specific reactivity | 0.34 | – | 0.81 | exhibit a similar effect | 0.56 | strongly activated ERK | strongly activate ERK | 13.5 | 6.76 | 22.4 |
| CCCN(CCOc1ccc(CCC(=O)O)cc1)c1ccccn1 [NCP03] | ++ (++ denotes 50 to 100% of LA) | +++ (+++ denotes a higher value than LA) | + (+ denotes 0 to 100% of LA) | ++ (++ denotes 50 to 100% of LA) | 5.25 | showed a specific reactivity | 1.25 | 17.8 | 0.57 | exhibit a similar effect | 0.00 | – | – | – | – | – |
| O=C(O)CCCc1ccc(OCCN(c2ccccc2)c2nc3ccccc3s2)cc1 [NCG31] | +++ (+++ denotes a higher value than LA) | +++ (+++ denotes a higher value than LA) | +++ (+++ denotes a higher value than LA) | +++ (+++ denotes a higher value than LA) | – | showed a specific reactivity | 0.32 | – | 0.73 | exhibit a similar effect | 0.61 | strongly activated ERK | strongly activate ERK | 19.1 | 6.92 | 17 |
| CCCCN(CCOc1ccc(CCC(=O)O)cc1)c1ccccn1 [NCP04] | +++ (+++ denotes a higher value than LA) | +++ (+++ denotes a higher value than LA) | + (+ denotes 0 to 100% of LA) | +++ (+++ denotes a higher value than LA) | 2.57 | showed a specific reactivity | 2.15 | 18.2 | 0.33 | exhibit a similar effect | 0.00 | – | – | – | – | – |
